In US9149038B2, “4-amino-6-(heterocyclic)picolinates and 6-amino-2-(heterocyclic)pyrimidine-4-carboxylates and their use as herbicides” (Dow AgroSciences LLC, priority 2013, dated 2015):
Like-named read-outs stand apart in the source and are kept apart here.

Tests used:
[1] = system: Key Grass and Sedge Weeds as well as Grass Crops; assay: Post-Emergent Test II: postemergent herbicidal activity, visual rating after 14 d (Table 8); assay type: in vivo; conditions: post-emergence, 336 h; for pest or weed control at 35 g/ha: 35 g ai/ha; for pest or weed control at 70 g/ha: 70 g ai/ha; for pest or weed control at 140 g/ha: 140 g ai/ha
Procedure, shortened: (§1)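 Post-emergence foliar spray, 187 L/ha, first/second true leaf stage plants in potting mix (pH 6.0-6.8). Rates: top rate and 2-fold serial dilutions to 1/16×. Solvent-blank controls. Readout: visual % kill at 14 d.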

[2] = system: Key Broadleaf Weed and Crop Species; assay: Post-Emergent Test II: postemergent herbicidal activity, visual rating after 14 d (Table 7); assay type: in vivo; conditions: post-emergence, 336 h; for pest or weed control at 35 g/ha: 35 g ai/ha; for pest or weed control at 70 g/ha: 70 g ai/ha; for pest or weed control at 140 g/ha: 140 g ai/ha
Procedure, shortened: as §1

[3] = barnyardgrass (Echinochloa crus-galli), read-out: Visual Growth Reduction (%) 14 Days After Application, ECHCG
[4] = giant foxtail (Setaria faberi), read-out: Visual Growth Reduction (%) 14 Days After Application, SETFA
[5] = maize, corn (Zea mays), read-out: Visual Growth Reduction (%) 14 Days After Application, ZEAMX
[6] = rice (Oryza sativa), read-out: Visual Growth Reduction (%) 14 Days After Application, ORYSA
[7] = wheat, spring (Triticum aestivum), read-out: Visual Growth Reduction (%) 14 Days After Application, TRZAS
[8] = yellow nutsedge (Cyperus esculentus), read-out: Visual Growth Reduction (%) 14 Days After Application, CYPES
[9] = ABUTH: velvetleaf (Abutilon theophrasti), read-out: Visual Growth Reduction (%) 14 Days After Application ABUTH
[10] = AMARE: redroot pigweed (Amaranthus retroflexus), read-out: Visual Growth Reduction (%) 14 Days After Application AMARE
[11] = BRSNN: oilseed rape, canola (Brassica napus), read-out: Visual Growth Reduction (%) 14 Days After Application BRSNN
[12] = CHEAL: lambsquarters (Chenopodium album), read-out: Visual Growth Reduction (%) 14 Days After Application CHEAL
[13] = EPHHL: wild poinsettia (Euphorbia heterophylla), read-out: Visual Growth Reduction (%) 14 Days After Application EPHHL
[14] = HELAN: sunflower (Helianthus annuus), read-out: Visual Growth Reduction (%) 14 Days After Application HELAN

COC(=O)c1nc(-c2ccc3c(c2)SCO3)c(F)c(N)c1Cl [Compound 105]
95 to 100%: pest or weed control at 140 g/ha [2, 14]
75 to 84%: pest or weed control at 140 g/ha [1, 3] | pest or weed control at 70 g/ha [2, 13]
85 to 94%: pest or weed control at 140 g/ha [2, 13] | pest or weed control at 35 g/ha [2, 14] | pest or weed control at 70 g/ha [2, 14]
0 to 29%: pest or weed control at 35 g/ha [1, 4] | pest or weed control at 70 g/ha [1, 4] | pest or weed control at 35 g/ha [1, 5] | pest or weed control at 70 g/ha [1, 5] | pest or weed control at 140 g/ha [1, 5] | pest or weed control at 35 g/ha [1, 6] | pest or weed control at 70 g/ha [1, 6] | pest or weed control at 140 g/ha [1, 6] | pest or weed control at 35 g/ha [1, 7] | pest or weed control at 70 g/ha [1, 7] | pest or weed control at 140 g/ha [1, 7] | pest or weed control at 35 g/ha [1, 8] | pest or weed control at 70 g/ha [1, 8] | pest or weed control at 140 g/ha [1, 8] | pest or weed control at 35 g/ha [2, 9] | pest or weed control at 70 g/ha [2, 9] | pest or weed control at 140 g/ha [2, 9] | pest or weed control at 35 g/ha [2, 10] | pest or weed control at 70 g/ha [2, 10] | pest or weed control at 35 g/ha [2, 11]
30 to 44%: pest or weed control at 140 g/ha [1, 4] | pest or weed control at 70 g/ha [2, 11] | pest or weed control at 35 g/ha [2, 12] | pest or weed control at 70 g/ha [2, 12]
60 to 74%: pest or weed control at 70 g/ha [1, 3] | pest or weed control at 140 g/ha [2, 11] | pest or weed control at 140 g/ha [2, 12] | pest or weed control at 35 g/ha [2, 13]
45 to 59%: pest or weed control at 35 g/ha [1, 3] | pest or weed control at 140 g/ha [2, 10]
